Results taken from PubChem BioAssay AID1963836 (Molecular Pharmacology Branch, DTP, NCI, 2024).

Test system: 857933-349-R-J2-PDC complex spheroid viability
Assay: Anticancer human tumor 857933-349-R-J2-PDC patient-derived colon adenocarcinoma cell line growth inhibition [POLQ]
Settings: for IC50: curve of first compound; for viability, T/C: stronger effect = lower value
Method in brief: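 PDC + HUVEC + MSC complex spheroids; POLQ inhibitors ± partner drugs; top conc. at/near clinical Cmax, else 10 microM (SN-38 1 microM), half-log dilutions; 37 degrees C, 5% CO2.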

[1] = second compound 0.0316 µM, first compound 0.0316 µM
[2] = second compound 0.0316 µM, first compound 0.1 µM
[3] = second compound 0.0316 µM, first compound 0.316 µM
[4] = second compound 0.0316 µM, first compound 1 µM
[5] = second compound 0.1 µM, first compound 0.0316 µM
[6] = second compound 0.1 µM, first compound 0.1 µM
[7] = second compound 0.1 µM, first compound 0.316 µM
[8] = second compound 0.1 µM, first compound 1 µM
[9] = second compound 0.316 µM, first compound 0.0316 µM
[10] = second compound 0.316 µM, first compound 0.1 µM
[11] = second compound 0.316 µM, first compound 0.316 µM
[12] = second compound 0.316 µM, first compound 1 µM
[13] = second compound 1 µM, first compound 0.0316 µM
[14] = second compound 1 µM, first compound 0.1 µM
[15] = second compound 1 µM, first compound 0.316 µM
[16] = second compound 1 µM, first compound 1 µM
[17] = second compound 3.16 µM, first compound 0.0316 µM
[18] = second compound 3.16 µM, first compound 0.1 µM
[19] = second compound 3.16 µM, first compound 0.316 µM
[20] = second compound 3.16 µM, first compound 1 µM
[21] = second compound 10 µM, first compound 0.0316 µM
[22] = second compound 10 µM, first compound 0.1 µM
[23] = second compound 10 µM, first compound 0.316 µM
[24] = second compound 10 µM, first compound 1 µM
[25] = second compound 0.0316 µM, first compound 3.16 µM
[26] = second compound 0.0316 µM, first compound 10 µM
[27] = second compound 0.1 µM, first compound 3.16 µM
[28] = second compound 0.1 µM, first compound 10 µM
[29] = second compound 0.316 µM, first compound 3.16 µM
[30] = second compound 0.316 µM, first compound 10 µM
[31] = second compound 1 µM, first compound 3.16 µM
[32] = second compound 1 µM, first compound 10 µM
[33] = second compound 3.16 µM, first compound 3.16 µM
[34] = second compound 3.16 µM, first compound 10 µM
[35] = second compound 10 µM, first compound 3.16 µM
[36] = second compound 10 µM, first compound 10 µM
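Also: spheroids exposed to compounds for seven days before readout.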

Compound: COc1cccc(OCCCN)c1-c1cc(Nc2cnc(C#N)cn2)n[nH]1 + Nc1ccc(C#CCN(C(=O)Cc2ncc(C(F)(F)F)cc2C(F)(F)F)c2ccc(F)cc2)nn1
- IC50 (second compound 0.0316 µM): > 1000 nM
- IC50 (second compound 0.1 µM): 685 nM
- IC50 (second compound 0.316 µM): > 1000 nM
- IC50 (second compound 1 µM): 670 nM
- IC50 (second compound 3.16 µM): > 1000 nM
- IC50 (second compound 10 µM): > 1000 nM
- viability, T/C (second compound 0.0316 µM, first compound 0.00316 µM): 101%
- viability, T/C (second compound 0.0316 µM, first compound 0.01 µM): 113%
- viability, T/C [1]: 83.8%
- viability, T/C [2]: 68.4%
- viability, T/C [3]: 58.9%
- viability, T/C [4]: 50.2%
- viability, T/C (second compound 0.1 µM, first compound 0.00316 µM): 104%
- viability, T/C (second compound 0.1 µM, first compound 0.01 µM): 107%
- viability, T/C [5]: 76.9%
- viability, T/C [6]: 88.8%
- viability, T/C [7]: 58.2%
- viability, T/C [8]: 44.3%
- viability, T/C (second compound 0.316 µM, first compound 0.00316 µM): 105%
- viability, T/C (second compound 0.316 µM, first compound 0.01 µM): 101%
- viability, T/C [9]: 88.2%
- viability, T/C [10]: 62.1%
- viability, T/C [11]: 57.8%
- viability, T/C [12]: 54.4%
- viability, T/C (second compound 1 µM, first compound 0.00316 µM): 109%
- viability, T/C (second compound 1 µM, first compound 0.01 µM): 88.5%
- viability, T/C [13]: 80.5%
- viability, T/C [14]: 70%
- viability, T/C [15]: 53.9%
- viability, T/C [16]: 47.1%
- viability, T/C (second compound 3.16 µM, first compound 0.00316 µM): 101%
- viability, T/C (second compound 3.16 µM, first compound 0.01 µM): 96.9%
- viability, T/C [17]: 81.9%
- viability, T/C [18]: 66.8%
- viability, T/C [19]: 51.2%
- viability, T/C [20]: 54.9%
- viability, T/C (second compound 10 µM, first compound 0.00316 µM): 86.8%
- viability, T/C (second compound 10 µM, first compound 0.01 µM): 102%
- viability, T/C [21]: 76.9%
- viability, T/C [22]: 69.8%
- viability, T/C [23]: 57%
- viability, T/C [24]: 54%

Compound: Nc1ccn(C2OC(CO)C(O)C2(F)F)c(=O)n1 (stereo unspecified) + Nc1ccc(C#CCN(C(=O)Cc2ncc(C(F)(F)F)cc2C(F)(F)F)c2ccc(F)cc2)nn1
- IC50 (second compound 0.0316 µM): 87 nM
- IC50 (second compound 0.1 µM): 114 nM
- IC50 (second compound 0.316 µM): 125 nM
- IC50 (second compound 1 µM): 121 nM
- IC50 (second compound 3.16 µM): 109 nM
- IC50 (second compound 10 µM): 115 nM
- viability, T/C [1]: 74.7%
- viability, T/C [2]: 46.7%
- viability, T/C [3]: 14.3%
- viability, T/C [4]: 9.47%
- viability, T/C [25]: 6.73%
- viability, T/C [26]: 6.61%
- viability, T/C [5]: 65.3%
- viability, T/C [6]: 54.7%
- viability, T/C [7]: 14.5%
- viability, T/C [8]: 8.76%
- viability, T/C [27]: 7.02%
- viability, T/C [28]: 6.34%
- viability, T/C [9]: 71.5%
- viability, T/C [10]: 59.6%
- viability, T/C [11]: 9.98%
- viability, T/C [12]: 9.36%
- viability, T/C [29]: 5.55%
- viability, T/C [30]: 7.25%
- viability, T/C [13]: 81%
- viability, T/C [14]: 57.6%
- viability, T/C [15]: 12%
- viability, T/C [16]: 11.3%
- viability, T/C [31]: 9.17%
- viability, T/C [32]: 6.73%
- viability, T/C [17]: 69.6%
- viability, T/C [18]: 52.8%
- viability, T/C [19]: 17.3%
- viability, T/C [20]: 9.05%
- viability, T/C [33]: 6.17%
- viability, T/C [34]: 7.31%
- viability, T/C [21]: 66.3%
- viability, T/C [22]: 54.9%
- viability, T/C [23]: 15%
- viability, T/C [24]: 11.1%
- viability, T/C [35]: 12.4%
- viability, T/C [36]: 10.2%

Compound: O=C(c1cc(Cc2n[nH]c(=O)c3ccccc23)ccc1F)N1CCN(C(=O)C2CC2)CC1 + Nc1ccc(C#CCN(C(=O)Cc2ncc(C(F)(F)F)cc2C(F)(F)F)c2ccc(F)cc2)nn1
- IC50 (second compound 0.0316 µM): > 10000 nM
- IC50 (second compound 0.1 µM): > 10000 nM
- IC50 (second compound 0.316 µM): > 10000 nM
- IC50 (second compound 1 µM): > 10000 nM
- IC50 (second compound 3.16 µM): > 10000 nM
- IC50 (second compound 10 µM): > 10000 nM
- viability, T/C [1]: 84.3%
- viability, T/C [2]: 109%
- viability, T/C [3]: 94.2%
- viability, T/C [4]: 81.7%
- viability, T/C [25]: 97.1%
- viability, T/C [26]: 88.1%
- viability, T/C [5]: 102%
- viability, T/C [6]: 104%
- viability, T/C [7]: 105%
- viability, T/C [8]: 84.9%
- viability, T/C [27]: 99.1%
- viability, T/C [28]: 106%
- viability, T/C [9]: 101%
- viability, T/C [10]: 81.2%
- viability, T/C [11]: 83.8%
- viability, T/C [12]: 94.7%
- viability, T/C [29]: 98.2%
- viability, T/C [30]: 83.4%
- viability, T/C [13]: 104%
- viability, T/C [14]: 98.4%
- viability, T/C [15]: 90.5%
- viability, T/C [16]: 94.8%
- viability, T/C [31]: 82.6%
- viability, T/C [32]: 87.5%
- viability, T/C [17]: 90.7%
- viability, T/C [18]: 106%
- viability, T/C [19]: 92.9%
- viability, T/C [20]: 95%
- viability, T/C [33]: 101%
- viability, T/C [34]: 90.9%
- viability, T/C [21]: 88.1%
- viability, T/C [22]: 93.9%
- viability, T/C [23]: 95.5%
- viability, T/C [24]: 89%
- viability, T/C [35]: 74%
- viability, T/C [36]: 83.9%
